Laboratory results: publication PMC10997603, “Cryo-EM structures of pannexin 1 and 3 reveal differences among pannexin isoforms” (Nature Communications, 2024)
Read-outs that look alike come from different tables or passages of the source.

Key:
PANX1 (PANX1WT) [1] = target: T1, PANX1 (PANX1WT) (Homo sapiens, UniProt Q96RD7, K24A); test: microscale thermophoresis; type: binding
T1 construct: full-length; C-terminal TEV site-eGFP-8xHis, GFP/His cut by TEV for purified protein; HEK293S GnTI- (BacMam), GDN-solubilised homoheptamer; transiently transfected HEK293 for patch clamp

PANX1 (PANX1WT) [2] = target: T2, PANX1 (PANX1WT) (Homo sapiens, UniProt Q96RD7, R75A); test: microscale thermophoresis; details: read-out: binding affinity
T2 construct: full-length; C-terminal TEV site-eGFP-8xHis, GFP/His cut by TEV for purified protein; HEK293S GnTI- (BacMam), GDN-solubilised homoheptamer; transiently transfected HEK293 for patch clamp

PANX1 (PANX1WT) [3] = target: T3, PANX1 (PANX1WT) (Homo sapiens, UniProt Q96RD7, R75D/W74R); test: microscale thermophoresis; type: binding
T3 construct: full-length; C-terminal TEV site-eGFP-8xHis, GFP/His cut by TEV for purified protein; HEK293S GnTI- (BacMam), GDN-solubilised homoheptamer; transiently transfected HEK293 for patch clamp

PANX1 (PANX1WT) [4] = target: T4, PANX1 (PANX1WT) (Homo sapiens, UniProt Q96RD7); test: microscale thermophoresis; type: binding
T4 construct: full-length; C-terminal TEV site-eGFP-8xHis, GFP/His cut by TEV for purified protein; HEK293S GnTI- (BacMam), GDN-solubilised homoheptamer; transiently transfected HEK293 for patch clamp

PANX1 (PANX1WT) [5] = target: T5, PANX1 (PANX1WT) (Homo sapiens, UniProt Q96RD7, R217H); test: microscale thermophoresis; details: read-out: apparent binding affinity
T5 construct: full-length; C-terminal TEV site-eGFP-8xHis, GFP/His cut by TEV for purified protein; HEK293S GnTI- (BacMam), GDN-solubilised homoheptamer; transiently transfected HEK293 for patch clamp

PANX3 (PANX3WT) [6] = target: T6, PANX3 (PANX3WT) (Homo sapiens, UniProt Q96QZ0); test: microscale thermophoresis; type: binding; details: read-out: affinity
T6 construct: full-length, 392 residues; C-terminal TEV site-eGFP-8xHis, GFP/His cut by TEV for purified protein; HEK293S GnTI- (BacMam), GDN-solubilised homoheptamer; transiently transfected HEK293 for patch clamp
T6 sequence (Q96QZ0 1-392): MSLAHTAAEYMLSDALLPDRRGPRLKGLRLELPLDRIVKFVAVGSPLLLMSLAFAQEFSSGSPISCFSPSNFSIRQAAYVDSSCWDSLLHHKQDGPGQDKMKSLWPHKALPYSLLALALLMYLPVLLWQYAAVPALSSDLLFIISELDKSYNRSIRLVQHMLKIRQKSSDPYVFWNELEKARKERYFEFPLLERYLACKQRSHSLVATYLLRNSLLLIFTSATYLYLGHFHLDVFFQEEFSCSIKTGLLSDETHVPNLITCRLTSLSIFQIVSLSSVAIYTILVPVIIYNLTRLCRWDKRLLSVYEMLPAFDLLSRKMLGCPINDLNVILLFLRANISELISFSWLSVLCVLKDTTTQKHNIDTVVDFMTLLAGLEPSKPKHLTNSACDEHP

PANX1 (PANX1WT) [7] = target: T5, PANX1 (PANX1WT); test: whole-cell patch clamp, transfected HEK293; type: cell-based; details: pH 7.4, 23 °C; 100 µM in bath
PANX3 (PANX3WT) [8] = target: T6, PANX3 (PANX3WT); test: whole-cell patch clamp, transfected HEK293; type: cell-based; details: pH 7.4, 23 °C; 100 µM in bath
PANX1 (PANX1WT) [9] = target: T7, PANX1 (PANX1WT) (Homo sapiens, UniProt Q96RD7, W74R/R75D); test: whole-cell patch clamp, transfected HEK293; type: cell-based; details: pH 7.4, 23 °C; 100 µM in bath
T7 construct: full-length; C-terminal TEV site-eGFP-8xHis, GFP/His cut by TEV for purified protein; HEK293S GnTI- (BacMam), GDN-solubilised homoheptamer; transiently transfected HEK293 for patch clamp

[10] = target: the molecule itself; test: cryo-EM structure; purified channel in GDN detergent, 25 mM Tris pH 8.0, 100 mM KCl, 1% glycerol, 5 mg/ml; 1 mM ATP added for PANX3; C7 symmetry imposed

T2 sequence (Q96RD7 whole entry R75A): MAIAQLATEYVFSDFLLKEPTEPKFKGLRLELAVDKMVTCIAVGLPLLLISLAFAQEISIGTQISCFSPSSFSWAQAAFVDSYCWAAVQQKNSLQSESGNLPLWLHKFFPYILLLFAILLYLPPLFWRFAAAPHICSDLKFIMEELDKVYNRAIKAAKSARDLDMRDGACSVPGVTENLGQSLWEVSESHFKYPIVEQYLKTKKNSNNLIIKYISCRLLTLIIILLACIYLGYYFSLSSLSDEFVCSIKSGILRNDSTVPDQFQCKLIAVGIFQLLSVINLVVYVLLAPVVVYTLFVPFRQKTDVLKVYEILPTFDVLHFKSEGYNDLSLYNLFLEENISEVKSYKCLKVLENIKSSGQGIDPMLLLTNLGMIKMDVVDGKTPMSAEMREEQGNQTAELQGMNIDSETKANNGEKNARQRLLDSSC
T1 sequence (Q96RD7 whole entry K24A): as the sequence (Q96RD7 whole entry R75A) above, with K24A, A75R counted along it

Molecule: Nc1ncnc2c1ncn2[C@@H]1O[C@H](CO[P@](=O)(O)O[P@](=O)(O)O[P@@](=O)(O)S)[C@@H](O)[C@H]1O [ATP-γS]
- Kd (PANX1 (PANX1WT) [1]): 94 ± 15 µM
- Kd (PANX1 (PANX1WT) [2]): 114 ± 28 µM
- Kd (PANX1 (PANX1WT) [3]): 67 ± 17 µM
- Kd (PANX1 (PANX1WT) [4]; read-out: apparent binding affinity): 18 ± 4 µM
- Kd (PANX1 (PANX1WT) [5]): 186 ± 70 µM
- Kd (PANX3 (PANX3WT) [6]): 69 µM

Molecule: Nc1ncnc2c1ncn2[C@@H]1O[C@H](COP(=O)(O)OP(=O)(O)OP(=O)(O)O)[C@@H](O)[C@H]1O [ATP]
- Kd (PANX1 (PANX1WT) [4]; read-out: affinity): 21 ± 11 µM

Molecule: CC1(C)[C@@H](OC(=O)CCC(=O)O)CC[C@]2(C)[C@H]3C(=O)C=C4[C@@H]5C[C@@](C)(C(=O)O)CC[C@]5(C)CC[C@@]4(C)[C@]3(C)CC[C@@H]12 [carbenoxolone]
- inhibition of currents at 100 μM (PANX1 (PANX1WT) [7]): inhibition of PANX1R217H currents by CBX similar to PANX1WT
- inhibition of currents at 100 μM (PANX3 (PANX3WT) [8]): We observe weaker CBX sensitivity in PANX3, in comparison to PANX1
- inhibition of currents at 100 μM (PANX1 (PANX1WT) [9]): decreased inhibition of PANX1WR/RD currents with CBX compared to PANX1WT

B1: human pannexin 3 (PANX3), full length (natural protein, UniProt Q96QZ0 1-392, looked up)
chain: MSLAHTAAEYMLSDALLPDRRGPRLKGLRLELPLDRIVKFVAVGSPLLLMSLAFAQEFSSGSPISCFSPSNFSIRQAAYVDSSCWDSLLHHKQDGPGQDKMKSLWPHKALPYSLLALALLMYLPVLLWQYAAVPALSSDLLFIISELDKSYNRSIRLVQHMLKIRQKSSDPYVFWNELEKARKERYFEFPLLERYLACKQRSHSLVATYLLRNSLLLIFTSATYLYLGHFHLDVFFQEEFSCSIKTGLLSDETHVPNLITCRLTSLSIFQIVSLSSVAIYTILVPVIIYNLTRLCRWDKRLLSVYEMLPAFDLLSRKMLGCPINDLNVILLFLRANISELISFSWLSVLCVLKDTTTQKHNIDTVVDFMTLLAGLEPSKPKHLTNSACDEHP
modifications: N-acetylglucosamine (NAG) at N71
notes: Pannexin 3, human, UniProt Q96QZ0, full length (392 residues); C-terminal TEV site (ENLYFQ) lies between the protein and eGFP-8xHis; residues of the site may be left after cleavage; Residues 1-24, 160-185 and 373-392 are not seen in the map; also called PANX3WT; source: HEK293S GnTI- cells, BacMam virus, purified (Ni-NTA, TEV cleavage, SEC) in GDN; not shown: eGFP, C-terminal, cleaved; 8x His, …
- stoichiometry N [10]: 7

B2: human pannexin 1 (PANX1), full length, wild type (natural protein, UniProt Q96RD7 1-426, looked up)
chain: MAIAQLATEYVFSDFLLKEPTEPKFKGLRLELAVDKMVTCIAVGLPLLLISLAFAQEISIGTQISCFSPSSFSWRQAAFVDSYCWAAVQQKNSLQSESGNLPLWLHKFFPYILLLFAILLYLPPLFWRFAAAPHICSDLKFIMEELDKVYNRAIKAAKSARDLDMRDGACSVPGVTENLGQSLWEVSESHFKYPIVEQYLKTKKNSNNLIIKYISCRLLTLIIILLACIYLGYYFSLSSLSDEFVCSIKSGILRNDSTVPDQFQCKLIAVGIFQLLSVINLVVYVLLAPVVVYTLFVPFRQKTDVLKVYEILPTFDVLHFKSEGYNDLSLYNLFLEENISEVKSYKCLKVLENIKSSGQGIDPMLLLTNLGMIKMDVVDGKTPMSAEMREEQGNQTAELQGMNIDSETKANNGEKNARQRLLDSSC
notes: Pannexin 1, human, UniProt Q96RD7, full length; C-terminal TEV site (ENLYFQ) lies between the protein and eGFP-8xHis; residues of the site may be left after cleavage; Only a map (no model) was deposited; also called PANX1WT; source: HEK293S GnTI- cells, BacMam virus, purified (Ni-NTA, TEV cleavage, SEC) in GDN; not shown: eGFP, C-terminal, cleaved; 8x His, C-terminal, cleaved
- stoichiometry N [10]: 7

B3: human pannexin 1 germline mutant R217H (natural protein, UniProt Q96RD7 1-426, looked up)
chain: MAIAQLATEYVFSDFLLKEPTEPKFKGLRLELAVDKMVTCIAVGLPLLLISLAFAQEISIGTQISCFSPSSFSWRQAAFVDSYCWAAVQQKNSLQSESGNLPLWLHKFFPYILLLFAILLYLPPLFWRFAAAPHICSDLKFIMEELDKVYNRAIKAAKSARDLDMRDGACSVPGVTENLGQSLWEVSESHFKYPIVEQYLKTKKNSNNLIIKYISCHLLTLIIILLACIYLGYYFSLSSLSDEFVCSIKSGILRNDSTVPDQFQCKLIAVGIFQLLSVINLVVYVLLAPVVVYTLFVPFRQKTDVLKVYEILPTFDVLHFKSEGYNDLSLYNLFLEENISEVKSYKCLKVLENIKSSGQGIDPMLLLTNLGMIKMDVVDGKTPMSAEMREEQGNQTAELQGMNIDSETKANNGEKNARQRLLDSSC
notes: Pannexin 1, human, UniProt Q96RD7, full length, with the germline substitution R217H (TM3); TEV site residues may be left after cleavage; also called PANX1_(R217H); source: HEK293S GnTI- cells, BacMam virus, purified (Ni-NTA, TEV cleavage, SEC) in GDN; not shown: eGFP, C-terminal, cleaved; 8x His, C-terminal, cleaved
- binding result [10]: binds

B4: human pannexin 1 double mutant W74R/R75D (natural protein, UniProt Q96RD7 1-426, looked up)
chain: MAIAQLATEYVFSDFLLKEPTEPKFKGLRLELAVDKMVTCIAVGLPLLLISLAFAQEISIGTQISCFSPSSFSRDQAAFVDSYCWAAVQQKNSLQSESGNLPLWLHKFFPYILLLFAILLYLPPLFWRFAAAPHICSDLKFIMEELDKVYNRAIKAAKSARDLDMRDGACSVPGVTENLGQSLWEVSESHFKYPIVEQYLKTKKNSNNLIIKYISCRLLTLIIILLACIYLGYYFSLSSLSDEFVCSIKSGILRNDSTVPDQFQCKLIAVGIFQLLSVINLVVYVLLAPVVVYTLFVPFRQKTDVLKVYEILPTFDVLHFKSEGYNDLSLYNLFLEENISEVKSYKCLKVLENIKSSGQGIDPMLLLTNLGMIKMDVVDGKTPMSAEMREEQGNQTAELQGMNIDSETKANNGEKNARQRLLDSSC
notes: Pannexin 1, human, UniProt Q96RD7, full length, with W74R and R75D; TEV site residues may be left after cleavage; also called PANX1_(WR/RD); PANX1 W74R/R75D; source: HEK293S GnTI- cells, BacMam virus, purified (Ni-NTA, TEV cleavage, SEC) in GDN; not shown: eGFP, C-terminal, cleaved; 8x His, C-terminal, cleaved
- binding result [10]: binds
